pIC50: −log10 of the molar value.
Test system: 624824-186-R-J3-PDC multicell spheroids, viability
Experiment: Anticancer human tumor 624824-186-R-J3-PDC patient-derived colon adenocarcinoma cell line growth inhibition [PI3K]
Conditions: for pIC50: curve of first compound; for viability, T/C: stronger effect = lower value
From the text: Combinatorial screen of targeted agents with the PI3K inhibitors inavolisib, alpelisib, duvelisib, and copanlisib in multi-cell type tumor spheroids
A high-throughput screen of multi-cell type tumor spheroids was designed to identify active combinations of targeted small molecules and PI3K pathway inhibitors. Complex spheroids include a stromal component modeled by human endothelial cells (HUVEC) and fibroblasts modeled by human mesenchymal stem cells (MSCs). The concentration ranges selected for each drug and investigational agent were based upon clinically achievable concentrations if the clinical Cmax of the agent was known.
Compounds. The drugs and investigational agents: inavolisib (NSC800729), alpelisib (NSC765974), duvelisib (NSC772469), copanlisib (NSC816437), ipatasertib (NSC767898), afuresertib (NSC778305), talazoparib (NSC767125), sapanisertib (NSC764658), selumetinib (NSC741078), tovorafenib (DAY101, NSC766906), vemurafenib (NSC761431), ravoxertinib (NSC781343), sotorasib (NSC818433), MRTX1133 (NSC 836407), abemaciclib (NSC 768073), palbociclib (NSC758247), venetoclax (NSC 766270), SY5609 (NSC837396), enzalutamide (NSC755605), and darolutamide (NSC825331), were obtained from the National Cancer Institute (NCI) Developmental Therapeutics Program Chemical Repository. The FDA-approved anticancer drug set is available from the NCI Developmental Therapeutics Program. […] The stock solutions were prepared in dimethyl sulfoxide (DMSO, Sigma-Aldrich, St. Louis, MO, cat. D2650) at 800-fold the tested concentration and stored at -70 degrees C prior to their use. All drugs and investigational agents were tested over a range starting from a high concentration at or near the clinical Cmax and decreasing in half-log increments. If the clinical Cmax for an agent had not been determined, the highest concentration tested was 10 microM.
Cell Culture. All cells were maintained in an incubator at 37 degrees C and 5% CO2 with 95% humidity. The PDC lines were cultured according to standard operating procedures established by the NCI PDMR (https://pdmr.cancer.gov/sops/default.htm). All PDCs were thawed and cultured in Matrigel-coated flasks prepared with a working solution of 1X Ham's F-12 nutrient mix, without supplementation (Invitrogen, Waltham, MA, cat. 11765054), 100 U/mL penicillin-streptomycin (Invitrogen, cat. 15140122), and 2.5% Matrigel (Corning Inc., Corning, NY, cat. 354248) for the first three passages. The 354836-022-R-J1-PDC, 475296-252-R-J1-PDC, and 997726-040-R-J2-PDC lines were cultured in 6A media, which includes advanced DMEM/F-12 (Thermo Fisher Scientific, cat. 12634028), 10 mM HEPES (Thermo Fisher Scientific, cat. 15630080), 1X GlutaMAX supplement (Thermo Fisher Scientific, cat. 35050061), 0.1 mg/mL primocin (InvivoGen, San Diego, CA, cat. ant-pm-2), 10% defined fetal bovine serum, heat inactivated (HyClone Laboratories Inc., Logan, UT, cat. SH30070.03HI), 50% L-WRN conditioned media (ATCC, cat. CRL-3276), 1.25 mM N-Acetyl-L-cysteine (Sigma-Aldrich, cat. A9165), 10 mM nicotinamide (Sigma-Aldrich, cat. N0636), 1X B-27 supplement (Thermo Fisher Scientific, cat. 17504044), 1X N-2 supplement (Thermo Fisher Scientific, cat. 17502048), and 10 microM Y-27632 dihydrochloride (Tocris Bioscience, Bristol, United Kingdom, cat. 1254). The 624824-186-R-J2-PDC line was cultured in 6C/Colon 1B media, which includes all 6A media components plus 50 ng/mL human EGF recombinant protein (Thermo Fisher Scientific, cat. PHG0311). […]

[1] = second compound 0.00316 µM, first compound 0.000316 µM
[2] = second compound 0.00316 µM, first compound 0.001 µM
[3] = second compound 0.00316 µM, first compound 0.00316 µM
[4] = second compound 0.00316 µM, first compound 0.01 µM
[5] = second compound 0.00316 µM, first compound 0.0316 µM
[6] = second compound 0.00316 µM, first compound 0.1 µM
[7] = second compound 0.01 µM, first compound 0.000316 µM
[8] = second compound 0.01 µM, first compound 0.001 µM
[9] = second compound 0.01 µM, first compound 0.00316 µM
[10] = second compound 0.01 µM, first compound 0.01 µM
[11] = second compound 0.01 µM, first compound 0.0316 µM
[12] = second compound 0.01 µM, first compound 0.1 µM
[13] = second compound 0.0316 µM, first compound 0.000316 µM
[14] = second compound 0.0316 µM, first compound 0.001 µM
[15] = second compound 0.0316 µM, first compound 0.00316 µM
[16] = second compound 0.0316 µM, first compound 0.01 µM
[17] = second compound 0.0316 µM, first compound 0.0316 µM
[18] = second compound 0.0316 µM, first compound 0.1 µM
[19] = second compound 0.1 µM, first compound 0.000316 µM
[20] = second compound 0.1 µM, first compound 0.001 µM
[21] = second compound 0.1 µM, first compound 0.00316 µM
[22] = second compound 0.1 µM, first compound 0.01 µM
[23] = second compound 0.1 µM, first compound 0.0316 µM
[24] = second compound 0.1 µM, first compound 0.1 µM
[25] = second compound 0.316 µM, first compound 0.000316 µM
[26] = second compound 0.316 µM, first compound 0.001 µM
[27] = second compound 0.316 µM, first compound 0.00316 µM
[28] = second compound 0.316 µM, first compound 0.01 µM
[29] = second compound 0.316 µM, first compound 0.0316 µM
[30] = second compound 0.316 µM, first compound 0.1 µM
[31] = second compound 1 µM, first compound 0.000316 µM
[32] = second compound 1 µM, first compound 0.001 µM
[33] = second compound 1 µM, first compound 0.00316 µM
[34] = second compound 1 µM, first compound 0.01 µM
[35] = second compound 1 µM, first compound 0.0316 µM
[36] = second compound 1 µM, first compound 0.1 µM
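Also: spheroids exposed to agents for seven days before luminescence read.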
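For viability, T/C in this document: luminescent signal used as a stand-in for spheroid viability; percent viability relative to DMSO vehicle control wells taken as 100%.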

CC(=O)c1c(C)c2cnc(Nc3ccc(N4CCNCC4)cn3)nc2n(C2CCCC2)c1=O + CC(Nc1ccc2c(c1)OCCn1cc(N3C(=O)OCC3C(F)F)nc1-2)C(N)=O
pIC50 (second compound 0.00316 µM): < 7.00
pIC50 (second compound 0.01 µM): < 7.00
pIC50 (second compound 0.0316 µM): < 7.00
pIC50 (second compound 0.1 µM): < 7.00
pIC50 (second compound 0.316 µM): < 7.00
pIC50 (second compound 1 µM): < 7.00
viability, T/C [1]: 100%
viability, T/C [2]: 101%
viability, T/C [3]: 101%
viability, T/C [4]: 105%
viability, T/C [5]: 99%
viability, T/C [6]: 110%
viability, T/C [7]: 108%
viability, T/C [8]: 94.6%
viability, T/C [9]: 106%
viability, T/C [10]: 102%
viability, T/C [11]: 108%
viability, T/C [12]: 106%
viability, T/C [13]: 101%
viability, T/C [14]: 105%
viability, T/C [15]: 84.5%
viability, T/C [16]: 105%
viability, T/C [17]: 104%
viability, T/C [18]: 97.3%
viability, T/C [19]: 101%
viability, T/C [20]: 99%
viability, T/C [21]: 95.7%
viability, T/C [22]: 107%
viability, T/C [23]: 107%
viability, T/C [24]: 102%
viability, T/C [25]: 99.2%
viability, T/C [26]: 95.5%
viability, T/C [27]: 106%
viability, T/C [28]: 99.8%
viability, T/C [29]: 108%
viability, T/C [30]: 104%
viability, T/C [31]: 91.3%
viability, T/C [32]: 96%
viability, T/C [33]: 97.9%
viability, T/C [34]: 94.8%
viability, T/C [35]: 88.5%
viability, T/C [36]: 81.3%

CC(C)n1nc(-c2ccc3oc(N)nc3c2)c2c(N)ncnc21 + CC(Nc1ccc2c(c1)OCCn1cc(N3C(=O)OCC3C(F)F)nc1-2)C(N)=O
pIC50 (second compound 0.00316 µM): < 7.00
pIC50 (second compound 0.01 µM): < 7.00
pIC50 (second compound 0.0316 µM): 7.04
pIC50 (second compound 0.1 µM): 7.09
pIC50 (second compound 0.316 µM): 7.15
pIC50 (second compound 1 µM): 7.37
viability, T/C [1]: 99.7%
viability, T/C [2]: 96.8%
viability, T/C [3]: 102%
viability, T/C [4]: 101%
viability, T/C [5]: 96.2%
viability, T/C [6]: 53.6%
viability, T/C [7]: 97.3%
viability, T/C [8]: 102%
viability, T/C [9]: 103%
viability, T/C [10]: 105%
viability, T/C [11]: 93.6%
viability, T/C [12]: 59.8%
viability, T/C [13]: 105%
viability, T/C [14]: 106%
viability, T/C [15]: 98.2%
viability, T/C [16]: 99.9%
viability, T/C [17]: 93.2%
viability, T/C [18]: 46.5%
viability, T/C [19]: 99.2%
viability, T/C [20]: 106%
viability, T/C [21]: 101%
viability, T/C [22]: 96.3%
viability, T/C [23]: 84.5%
viability, T/C [24]: 42.3%
viability, T/C [25]: 92.4%
viability, T/C [26]: 92.7%
viability, T/C [27]: 90.7%
viability, T/C [28]: 84.9%
viability, T/C [29]: 83%
viability, T/C [30]: 36.2%
viability, T/C [31]: 85.8%
viability, T/C [32]: 86.9%
viability, T/C [33]: 86.5%
viability, T/C [34]: 70.5%
viability, T/C [35]: 59.5%
viability, T/C [36]: 26.2%

CCCS(=O)(=O)Nc1ccc(F)c(C(=O)c2c[nH]c3ncc(-c4ccc(Cl)cc4)cc23)c1F + CC(Nc1ccc2c(c1)OCCn1cc(N3C(=O)OCC3C(F)F)nc1-2)C(N)=O
pIC50 (second compound 0.00316 µM): 5.30
pIC50 (second compound 0.01 µM): 5.38
pIC50 (second compound 0.0316 µM): 5.47
pIC50 (second compound 0.1 µM): 5.86
pIC50 (second compound 0.316 µM): 6.20
pIC50 (second compound 1 µM): 6.45
viability, T/C [5]: 93.5%
viability, T/C [6]: 89.6%
viability, T/C (second compound 0.00316 µM, first compound 0.316 µM): 98.9%
viability, T/C (second compound 0.00316 µM, first compound 1 µM): 88%
viability, T/C (second compound 0.00316 µM, first compound 3.16 µM): 71.9%
viability, T/C (second compound 0.00316 µM, first compound 10 µM): 17.3%
viability, T/C [11]: 100%
viability, T/C [12]: 94.1%
viability, T/C (second compound 0.01 µM, first compound 0.316 µM): 86.9%
viability, T/C (second compound 0.01 µM, first compound 1 µM): 74.4%
viability, T/C (second compound 0.01 µM, first compound 3.16 µM): 67.9%
viability, T/C (second compound 0.01 µM, first compound 10 µM): 12.9%
viability, T/C [17]: 103%
viability, T/C [18]: 92.8%
viability, T/C (second compound 0.0316 µM, first compound 0.316 µM): 83.4%
viability, T/C (second compound 0.0316 µM, first compound 1 µM): 73.7%
viability, T/C (second compound 0.0316 µM, first compound 3.16 µM): 55.6%
viability, T/C (second compound 0.0316 µM, first compound 10 µM): 13.9%
viability, T/C [23]: 99%
viability, T/C [24]: 86.1%
viability, T/C (second compound 0.1 µM, first compound 0.316 µM): 76.8%
viability, T/C (second compound 0.1 µM, first compound 1 µM): 48.6%
viability, T/C (second compound 0.1 µM, first compound 3.16 µM): 40.9%
viability, T/C (second compound 0.1 µM, first compound 10 µM): 14.1%
viability, T/C [29]: 95.2%
viability, T/C [30]: 87.7%
viability, T/C (second compound 0.316 µM, first compound 0.316 µM): 56.7%
viability, T/C (second compound 0.316 µM, first compound 1 µM): 41.8%
viability, T/C (second compound 0.316 µM, first compound 3.16 µM): 30.6%
viability, T/C (second compound 0.316 µM, first compound 10 µM): 13.3%
viability, T/C [35]: 77.7%
viability, T/C [36]: 69.5%
viability, T/C (second compound 1 µM, first compound 0.316 µM): 44.4%
viability, T/C (second compound 1 µM, first compound 1 µM): 38.1%
viability, T/C (second compound 1 µM, first compound 3.16 µM): 32.3%
viability, T/C (second compound 1 µM, first compound 10 µM): 11.6%

Source: PubChem BioAssay AID1963977 (Molecular Pharmacology Branch, DTP, NCI, 2024)
